Measured values from US8629169B2, “4-substituted-3-phenylsulfanylmethyl-bicyclo[3.1.0]hexane compounds as mGluR 2/3 antagonists” (Eli Lilly and Company, priority 2010, dated 2014).
Each block holds one compound with its values, some of them ahead of it.

Legend:
[1] = target: T1, human mGlu5 receptor (Homo sapiens, UniProt P41594); assay: FLIPR calcium antagonist assay for mGlu receptor selectivity, mGlu5; format: cell-based; details: inhibition of EC90 glutamate response, read-out: mGlu5 % inhib. @12.5 μM
T1 construct: expressed in transfected cells; host or cells: AV12 cells co-expressing rat EAAT1
Source text: (§1) The relative antagonist potencies of the compounds of the invention for the other human mGlu receptors can be assessed with either a cAMP assay or fluorometric calcium response assay (see for example Fell et al., JPET (in press)). Briefly, individual AV12 cell lines containing the rat EAAT1 glutamate transporter and stably expressing the human mGlu1, 2, 3, 4, 5, 6, & 8 receptors are used for these studies. The mGlu1 and 5 receptors are Gq-coupled, so they naturally signal through phospholipase C, producing a calcium flux response which can be used to measure receptor activation using a Fluorometric Imaging Plate Reader (FLIPR, Molecular Devices). […]
(§2) Intracellular calcium levels are monitored using FLIPR before and after the addition of test compounds and Fluo-3 AM (Invitrogen) or Calcium 4 (Molecular Devices) dye, depending on the cell line. […] The results are analyzed using GraphPad Prism v4.03 to calculate the concentrations of glutamate needed to induce the EC90 (antagonist assay) and EC10 (potentiator assay) responses.
(§3) Compounds are tested at each mGlu receptor in a two-addition FLIPR assay using a 10-point concentration response profile starting at a final concentration of 25 μM for the agonist assay and 12.5 μM for the potentiator and antagonist assays. […] Agonist effects are quantified as percent stimulation induced by compound alone relative to the maximal glutamate response. […]

[2] = target: T2, human mGlu4 receptor (Homo sapiens, UniProt Q14833); assay: FLIPR calcium antagonist assay for mGlu receptor selectivity, mGlu4; format: cell-based; details: inhibition of EC90 glutamate response, read-out: mGlu4 % inhib. @12.5 μM
T2 construct: expressed in transfected cells; host or cells: AV12 cells co-expressing rat EAAT1 and Galpha15
Source text: as §1, §2, §3

[3] = target: T3, human mGlu2 receptor (Homo sapiens, UniProt Q14416); assay: mGlu2 receptor cAMP antagonist assay; format: cell-based; details: reversal of DCG IV (EC90) inhibition of forskolin-stimulated cAMP; relative IC50
T3 construct: expressed in transfected cells; host or cells: AV12 cells co-expressing rat EAAT1
Protocol: (§4) Antagonist activity is assayed in recombinant AV12 cells stably expressing human mGlu2 or mGlu3 receptors and the rat glutamate transporter EAAT1 (Excitatory Amino Acid Transporter 1). The cell lines are maintained by culturing in DMEM with high glucose and pyridoxine hydrochloride supplemented with 5% dialyzed fetal bovine serum (FBS), 1 mM sodium pyruvate, 1 mM HEPES and 1 mM L-glutamine; geneticin and hygromycin B are used as selection antibiotics.
(§5) Reversal of the inhibition of forskolin-stimulated cAMP production by test compounds is measured using homogeneous time resolved fluorescence technology (HTRF; Cisbio cat #62AM4PEB). The medium is removed and the cells are incubated with 100 μl cAMP stimulation buffer (STIM) for 30 minutes at 37° C. […] Cells are incubated at 37° C. for 20 minutes. To measure the cAMP levels, cAMP-d2 conjugate and anti cAMP-cryptate conjugate in lysis buffer are incubated with the treated cells at room temperature for 1 hour (mGlu2) or 1.5 hour (mGlu3). […] The raw data are converted to cAMP amount (pmole/well) using a cAMP standard curve generated for each experiment. Relative IC50 values are calculated from the top-bottom range of the concentration response curve using a four-parameter logistic curve fitting program (ActivityBase v5.3.1.22).

[4] = target: T4, human mGlu6 receptor (Homo sapiens, UniProt O15303); assay: mGlu6 cAMP antagonist assay (reference agonist L-AP4); format: cell-based; details: cAMP format
T4 construct: expressed in transfected cells; host or cells: AV12 cells co-expressing rat EAAT1
Source text: as §1, with “Devices). The cell lines expressing the mGlu2, 3, 4, and 8 receptor are designed to express the Gα15 subunit so that these Gi-coupled receptors will generate a calcium flux response similar to the mGlu1 and 5 receptor expressing cell lines. The mGlu6 receptor is tested in a cAMP format using methods analogous to those developed for mGlu2 and mGlu3 above.” for “Devices).”
Antagonist activity in mGlu6 cells is measured using cAMP in a method analogous to that described above for mGlu2 and mGlu3 activity, except that the reference agonist was L-AP4 (Tocris). […] Relative IC50 and EC50 values are calculated from the top-bottom range of the concentration response curve using a four-parameter logistic curve fitting program (ActivityBase v5.3.1.22).

[5] = target: T5, human mGlu1 receptor (Homo sapiens, UniProt Q13255); assay: FLIPR calcium antagonist assay for mGlu receptor selectivity, mGlu1; format: cell-based; details: inhibition of EC90 glutamate response, read-out: mGlu1 % inhib. @12.5 μM
T5 construct: expressed in transfected cells; host or cells: AV12 cells co-expressing rat EAAT1
Source text: as §1, §2, §3

[6] = tested on: mGlu2+/+ and mGlu2−/− mice; assay: mFST in mGlu2 knock-out mice and +/+ littermates
Protocol: Briefly, male NIH-Swiss mice (Harlan Sprague-Dawley, Indianapolis, Ind.) weighing between 25-30 g are used. Group housed animals are removed from the vivarium to the testing area in their own cages and allowed to adapt to the new environment for at least 1 hour before testing. […] Mice are placed in a cylinder (diameter: 10 cm; height: 25 cm) filled with 6 cm of water (22-25° C.) for 6 min. The duration of immobility during the last 4 min. of the 6 min. period of the test was scored. A mouse is recorded as immobile when floating motionless or making only those movements necessary to keep its head above water.
In other experiments, mice with receptor deletions (mGlu2 knock-out mice) are studied; these mice are bred by heterozygote×heterozygote breeding and used as littermates for −/− and +/+ mouse comparisons (Taconic Farms).

[7] = target: T6, human mGlu8 receptor (Homo sapiens, UniProt O00222); assay: FLIPR calcium antagonist assay for mGlu receptor selectivity, mGlu8; format: cell-based
T6 construct: expressed in transfected cells; host or cells: AV12 cells co-expressing rat EAAT1 and Galpha15
Source text: The relative antagonist potencies of the compounds of the invention for the other human mGlu receptors can be assessed with either a cAMP assay or fluorometric calcium response assay (see for example Fell et al., JPET (in press)). Briefly, individual AV12 cell lines containing the rat EAAT1 glutamate transporter and stably expressing the human mGlu1, 2, 3, 4, 5, 6, & 8 receptors are used for these studies. The mGlu1 and 5 receptors are Gq-coupled, so they naturally signal through phospholipase C, producing a calcium flux response which can be used to measure receptor activation using a Fluorometric Imaging Plate Reader (FLIPR, Molecular Devices). The cell lines expressing the mGlu2, 3, 4, and 8 receptor are designed to express the Gα15 subunit so that these Gi-coupled receptors will generate a calcium flux response similar to the mGlu1 and 5 receptor expressing cell lines. The mGlu6 receptor is tested in a cAMP format using methods analogous to those developed for mGlu2 and mGlu3 above. These cell lines are maintained as previously described except that amounts of L-glutamine and selection agents (geneticin, hygromycin B, zeocin, and blasticidin) may vary depending on the cell line. Confluent cultures are passaged biweekly.
Intracellular calcium levels are monitored using FLIPR before and after the addition of test compounds and Fluo-3 AM (Invitrogen) or Calcium 4 (Molecular Devices) dye, depending on the cell line. Cells are plated 24 hours prior to assay in a variable concentration of glutamine and a variable density of cells per well, depending on the cell line. The medium is removed and the cells are incubated with 8 μM of dye (50 μl per well) for 90 or 120 minutes (depending on cell line) at 25° C. […] The results are analyzed using GraphPad Prism v4.03 to calculate the concentrations of glutamate needed to induce the EC90 (antagonist assay) and EC10 (potentiator assay) responses.
Compounds are tested at each mGlu receptor in a two-addition FLIPR assay using a 10-point concentration response profile starting at a final concentration of 25 μM for the agonist assay and 12.5 μM for the potentiator and antagonist assays. […] Agonist effects are quantified as percent stimulation induced by compound alone relative to the maximal glutamate response. Antagonist effects are quantified by calculating the percent inhibition of the EC90 glutamate response caused by the compound. Potentiation effects are quantified as percent increase in the presence of an EC10 response in glutamate relative to the ECmax response. All data are calculated as relative IC50 or EC50 values using a four-parameter logistic curve fitting program (ActivityBase v5.3.1.22).

[8] = tested on: male NIH-Swiss mice; assay: Forced-swim test in mice (mFST); format: in vivo, mouse; details: for ED60 (mg/kg): immobility, last 4 min of 6 min; for Maximal Decrease (1 − compound/control) * 100%: immobilization time
[9] = target: T7, human mGlu3 receptor (Homo sapiens, UniProt Q14832); assay: mGlu3 receptor cAMP antagonist assay; format: cell-based; details: reversal of DCG IV (EC90) inhibition of forskolin-stimulated cAMP; relative IC50
T7 construct: expressed in transfected cells; host or cells: AV12 cells co-expressing rat EAAT1
Protocol: as §4, §5

[10] = tested on: mice; assay: mFST alone and in combination with SSRI; format: in vivo, mouse; details: Example 12 10 mg/kg p.o.
[11] = tested on: male Wistar rats; assay: Wakefulness and behavioral monitoring in rats (EEG/EMG/LMA); format: in vivo; details: rat; for Locomotor Activity Intensity, mean difference from vehicle controls: averaged over the first 7 hr post-treatment; for Cumulative Time Awake 8-19 hours, mean difference from vehicle controls: rebound hypersomnolence measure
Protocol: Representative compounds of the present invention are tested in rats for their ability to increase the amount of time in a state of wakefulness without undesired effects such as inhibition of REM sleep, waking motor impairment (disproportionate hyper- or hypolocomotion), and/or rebound hypersomnia Test animals are continuously monitored by electro-encephalograms (EEG), electromyograms (EMG), and motion to measure cumulative time awake, rebound hypersomnia, and locomotor activity intensity during wakefulness. Methods for such studies are known in the art (see for example methods described in Edgar D M, Seidel W F. Modafinil induces wakefulness without intensifying motor activity or subsequent rebound hypersomnolence in the rat. J Pharmacology & Experimental Therapeutics 1997; 283: 757-769; van Gelder R N, Edgar D M, Dement W C. Real-time automated sleep scoring: validation of a microcomputer-based system for mice. Sleep 1991, 14: 48-55; and Gross B A, Walsh C M, Turakhia A A, Booth V, Mashour G A, Poe G R. Open-source logic-based automated sleep scoring software using electrophysiological recordings in rats. J Neurosci Methods. 2009; 184(1):10-8.) Studies are conducted as follows:
Adult, male Wistar rats (approximately 270-300 g at time of surgery) are surgically fitted for chronic recording of EEG, EMG, body temperature, and motion as follows: Rats are surgically prepared with a cranial implant consisting of four stainless steel screws for EEG recording (two frontal [3.9 mm anterior from bregma, and ±2.0 mm mediolaterally] and two occipital [6.4 mm posterior from bregma, ±5.5 mm mediolaterally]), and with two Teflon-coated stainless steel wires for EMG recording (positioned under the nuchal trapezoid muscles). All leads are soldered to a miniature connector (Microtech, Boothwyn, Pa.) prior to surgery. The implant assembly is affixed to the skull by the combination of the stainless steel EEG recording screws, cyanoacrylate applied between the implant connector and skull, and dental acrylic. Body temperature and locomotor activity is monitored via a miniature transmitter (Minimitter PDT4000G, Philips Respironics, Bend, Oreg.) surgically placed into the abdomen. At least 3 weeks are allowed for recovery.
Each rat is housed individually within a microisolator cage modified with an inserted polycarbonate filter-top riser to allow more vertical headroom. A flexible cable that minimally restricts movement is connected at one end to a commutator affixed to the cage top and at the other end to the animal's cranial implant. Each cage is located within separate, ventilated compartments of a stainless steel sleep-wake recording chamber. Food and water are available ad libitum and the ambient temperature is maintained at about 23±1° C. A 24-hr light-dark cycle (LD 12:12) using fluorescent light is maintained throughout the study. Relative humidity averages approximately 50%. Animals are undisturbed for at least 30 hrs before and after each treatment.
The vehicle or one of the compound dose levels is administered pseudo-randomly such that no rat receives the same treatment twice, and no rat receives more than two of the 8 treatments in any one study. Each rat is removed from its cage for about a minute to be weighed and treated. At least 6 days “washout” period precede and follow each treatment.
Sleep and wakefulness discrimination may be automated (e.g., Van Gelder et al. 1991; Edgar et al. 1997, Winrow et al., 2010; Gross et al., 2009).

[12] = Brain and plasma exposure levels in the SSRI combination study; details: combination with fluoxetine or citalopram versus alone
[13] = citalopram experiment, citalopram 1 mg/kg i.p.
[14] = fluoxetine experiment, fluoxetine 10 mg/kg i.p.

T6 sequence (O00222 34-908): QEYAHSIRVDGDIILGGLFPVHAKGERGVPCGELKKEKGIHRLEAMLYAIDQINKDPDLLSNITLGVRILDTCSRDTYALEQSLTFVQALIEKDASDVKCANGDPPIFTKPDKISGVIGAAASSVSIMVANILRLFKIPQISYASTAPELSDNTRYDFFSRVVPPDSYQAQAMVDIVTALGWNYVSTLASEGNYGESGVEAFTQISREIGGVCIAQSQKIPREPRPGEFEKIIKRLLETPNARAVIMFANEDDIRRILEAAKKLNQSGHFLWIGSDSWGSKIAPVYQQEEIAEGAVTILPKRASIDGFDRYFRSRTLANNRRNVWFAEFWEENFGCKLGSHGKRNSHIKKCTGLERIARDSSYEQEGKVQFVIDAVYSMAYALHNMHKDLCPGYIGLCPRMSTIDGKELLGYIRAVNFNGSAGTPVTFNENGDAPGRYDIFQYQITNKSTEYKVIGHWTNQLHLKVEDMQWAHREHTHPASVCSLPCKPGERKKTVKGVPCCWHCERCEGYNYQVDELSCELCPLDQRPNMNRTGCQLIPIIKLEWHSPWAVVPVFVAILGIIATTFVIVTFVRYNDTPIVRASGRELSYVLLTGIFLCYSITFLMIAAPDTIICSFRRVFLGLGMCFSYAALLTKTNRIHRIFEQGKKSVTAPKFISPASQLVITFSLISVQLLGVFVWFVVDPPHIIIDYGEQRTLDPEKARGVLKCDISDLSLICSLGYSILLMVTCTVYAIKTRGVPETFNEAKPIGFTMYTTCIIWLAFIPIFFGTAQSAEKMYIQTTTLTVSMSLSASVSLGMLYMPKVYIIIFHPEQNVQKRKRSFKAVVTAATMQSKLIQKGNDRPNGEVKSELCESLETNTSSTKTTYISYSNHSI
T4 sequence (O15303 25-877): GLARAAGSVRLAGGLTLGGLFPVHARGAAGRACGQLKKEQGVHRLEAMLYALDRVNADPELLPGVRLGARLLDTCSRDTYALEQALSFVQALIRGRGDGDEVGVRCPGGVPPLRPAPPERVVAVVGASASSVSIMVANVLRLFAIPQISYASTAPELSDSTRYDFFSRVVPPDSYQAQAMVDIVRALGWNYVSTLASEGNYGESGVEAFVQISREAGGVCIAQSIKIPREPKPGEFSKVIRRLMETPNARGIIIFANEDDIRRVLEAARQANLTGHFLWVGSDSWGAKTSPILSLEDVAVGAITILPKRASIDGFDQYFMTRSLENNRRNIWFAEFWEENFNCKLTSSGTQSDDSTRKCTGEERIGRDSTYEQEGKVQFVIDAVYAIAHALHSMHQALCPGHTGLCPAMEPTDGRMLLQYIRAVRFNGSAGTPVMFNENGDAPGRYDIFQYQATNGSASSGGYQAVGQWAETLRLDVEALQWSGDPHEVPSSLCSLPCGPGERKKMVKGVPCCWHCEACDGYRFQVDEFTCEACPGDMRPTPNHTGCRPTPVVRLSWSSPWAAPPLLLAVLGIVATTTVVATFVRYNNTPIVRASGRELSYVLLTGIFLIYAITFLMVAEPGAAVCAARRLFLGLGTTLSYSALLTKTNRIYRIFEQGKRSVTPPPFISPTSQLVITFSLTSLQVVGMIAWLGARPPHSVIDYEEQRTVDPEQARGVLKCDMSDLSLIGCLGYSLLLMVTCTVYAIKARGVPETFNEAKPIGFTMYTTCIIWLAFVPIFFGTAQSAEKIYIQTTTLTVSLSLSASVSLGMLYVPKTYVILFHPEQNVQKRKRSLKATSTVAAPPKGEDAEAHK
T3 sequence (Q14416 19-872): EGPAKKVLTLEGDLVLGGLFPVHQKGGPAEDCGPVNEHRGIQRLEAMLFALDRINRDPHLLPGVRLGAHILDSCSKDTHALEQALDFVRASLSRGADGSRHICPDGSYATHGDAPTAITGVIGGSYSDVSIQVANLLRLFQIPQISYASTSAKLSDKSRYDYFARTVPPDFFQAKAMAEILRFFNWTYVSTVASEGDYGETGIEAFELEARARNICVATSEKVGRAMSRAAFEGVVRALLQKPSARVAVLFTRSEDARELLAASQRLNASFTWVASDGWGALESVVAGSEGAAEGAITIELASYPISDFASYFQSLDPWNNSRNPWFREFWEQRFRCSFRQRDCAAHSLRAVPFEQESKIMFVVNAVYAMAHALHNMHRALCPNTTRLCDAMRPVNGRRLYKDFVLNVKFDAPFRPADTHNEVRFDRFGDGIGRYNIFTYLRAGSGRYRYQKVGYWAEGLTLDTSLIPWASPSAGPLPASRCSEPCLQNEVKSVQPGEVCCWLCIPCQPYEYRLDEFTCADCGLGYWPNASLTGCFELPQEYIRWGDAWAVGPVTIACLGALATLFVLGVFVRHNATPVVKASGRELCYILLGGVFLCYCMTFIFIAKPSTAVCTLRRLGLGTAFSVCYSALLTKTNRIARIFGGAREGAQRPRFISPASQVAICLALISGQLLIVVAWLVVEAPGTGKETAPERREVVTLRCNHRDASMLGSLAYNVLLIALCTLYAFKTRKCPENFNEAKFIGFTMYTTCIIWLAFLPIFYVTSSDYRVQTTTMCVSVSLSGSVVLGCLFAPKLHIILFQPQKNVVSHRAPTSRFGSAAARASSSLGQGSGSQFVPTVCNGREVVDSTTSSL
T7 sequence (Q14832 23-879): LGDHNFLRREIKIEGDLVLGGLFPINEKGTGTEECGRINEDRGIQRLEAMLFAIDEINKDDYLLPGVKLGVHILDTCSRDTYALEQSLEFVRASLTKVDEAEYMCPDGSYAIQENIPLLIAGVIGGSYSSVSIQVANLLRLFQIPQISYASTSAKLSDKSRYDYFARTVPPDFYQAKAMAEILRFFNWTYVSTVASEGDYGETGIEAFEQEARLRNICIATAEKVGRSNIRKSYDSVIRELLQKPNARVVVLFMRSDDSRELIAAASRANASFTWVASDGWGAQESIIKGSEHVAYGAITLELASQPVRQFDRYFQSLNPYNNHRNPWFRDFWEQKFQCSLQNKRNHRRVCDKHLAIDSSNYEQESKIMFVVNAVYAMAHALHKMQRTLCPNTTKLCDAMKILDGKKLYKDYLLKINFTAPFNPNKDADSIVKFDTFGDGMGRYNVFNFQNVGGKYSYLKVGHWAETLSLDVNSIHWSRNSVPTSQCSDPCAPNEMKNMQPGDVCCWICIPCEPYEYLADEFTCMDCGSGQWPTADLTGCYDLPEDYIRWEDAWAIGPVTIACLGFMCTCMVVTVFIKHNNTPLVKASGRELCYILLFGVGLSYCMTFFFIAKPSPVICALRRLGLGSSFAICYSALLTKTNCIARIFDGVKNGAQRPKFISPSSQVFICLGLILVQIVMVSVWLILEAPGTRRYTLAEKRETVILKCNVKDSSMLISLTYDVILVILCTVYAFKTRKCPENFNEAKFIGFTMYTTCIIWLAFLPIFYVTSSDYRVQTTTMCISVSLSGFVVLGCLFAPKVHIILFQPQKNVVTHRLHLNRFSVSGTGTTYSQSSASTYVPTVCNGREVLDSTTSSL
T5 sequence (Q13255 19-1194): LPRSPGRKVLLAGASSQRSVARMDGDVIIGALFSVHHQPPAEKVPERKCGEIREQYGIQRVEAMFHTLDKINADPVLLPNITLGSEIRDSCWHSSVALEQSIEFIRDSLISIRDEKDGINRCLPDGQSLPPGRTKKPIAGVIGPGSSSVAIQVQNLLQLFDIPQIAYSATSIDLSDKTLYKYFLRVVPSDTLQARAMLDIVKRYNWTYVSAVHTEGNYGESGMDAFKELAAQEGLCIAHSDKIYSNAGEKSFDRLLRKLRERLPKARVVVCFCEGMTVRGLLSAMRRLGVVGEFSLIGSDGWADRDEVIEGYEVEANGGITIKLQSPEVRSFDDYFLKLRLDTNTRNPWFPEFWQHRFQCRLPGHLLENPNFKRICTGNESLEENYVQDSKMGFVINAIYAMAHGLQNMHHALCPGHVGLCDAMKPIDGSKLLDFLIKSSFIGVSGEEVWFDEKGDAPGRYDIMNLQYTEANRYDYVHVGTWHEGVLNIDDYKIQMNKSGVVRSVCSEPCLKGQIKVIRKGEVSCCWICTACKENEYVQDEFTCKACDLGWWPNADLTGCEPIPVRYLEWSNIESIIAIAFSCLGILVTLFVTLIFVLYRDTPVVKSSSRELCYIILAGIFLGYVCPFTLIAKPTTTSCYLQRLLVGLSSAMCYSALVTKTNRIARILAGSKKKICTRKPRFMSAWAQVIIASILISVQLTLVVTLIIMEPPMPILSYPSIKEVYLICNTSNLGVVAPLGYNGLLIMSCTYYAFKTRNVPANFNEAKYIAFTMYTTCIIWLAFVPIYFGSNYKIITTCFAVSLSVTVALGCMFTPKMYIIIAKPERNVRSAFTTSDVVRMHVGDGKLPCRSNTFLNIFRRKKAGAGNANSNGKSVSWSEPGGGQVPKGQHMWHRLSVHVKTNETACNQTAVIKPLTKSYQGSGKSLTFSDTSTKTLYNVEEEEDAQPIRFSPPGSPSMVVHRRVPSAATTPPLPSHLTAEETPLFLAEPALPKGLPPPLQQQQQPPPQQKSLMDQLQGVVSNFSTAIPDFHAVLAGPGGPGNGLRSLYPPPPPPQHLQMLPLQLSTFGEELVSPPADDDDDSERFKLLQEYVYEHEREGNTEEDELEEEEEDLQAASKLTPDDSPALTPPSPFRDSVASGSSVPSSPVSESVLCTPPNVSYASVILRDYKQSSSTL

inhibition at 12.5 µM [1]: 21.4%
inhibition at 12.5 µM [2]: 28%
IC50 [3]: 12.7 ± 2.3 nM
IC50 [4]: 1390 nM
inhibition at 12.5 µM [5]: 7.9%
inhibition at 12.5 µM ([7]; 12.5 μM, inhibition of EC90 glutamate response, read-out: mGlu8 % inhib. @12.5 μM): 68.7%
IC50 ([7]; FLIPR antagonist, in brackets under % inhib.): 7860 nM
IC50 [9]: 13.4 ± 3.4 nM
SMILES: Cl.N[C@]1(C(=O)O)[C@@H]2[C@@H](C(=O)O)[C@@H]2[C@H](O)[C@H]1CSc1ccc(F)c(Cl)c1 [Example 2, (1S,2R,3S,4S,5R,6R)-2-Amino-3-{[(3-chloro-4-fluorophenyl)sulfanyl]methyl}-4-hydroxybicyclo[3.1.0]hexane-2,6-dicarboxylic acid hydrochloride]
immobility time in mGlu2+/+ mice ([6]; 10 mg/kg, i.p., 30 min prior): significantly decrease immobility time
ED60 (mg/kg) ([8]; i.p.): 24.5 (i.p.) mg/kg
Maximal Decrease (1 − compound/control) * 100% ([8]; i.p.): 33.5%

SMILES: CC(C)OC(=O)OCOC(=O)[C@H]1[C@@H]2[C@H](O)[C@@H](CSc3ccc(F)c(F)c3)[C@@](N)(C(=O)OCOC(=O)OC(C)C)[C@H]12.Cl [Example 12, Bis({[(1-methylethoxy)carbonyl]oxy}methyl)(1S,2R,3S,4S,5R,6R)-2-amino-3-{[(3,4-difluorophenyl)sulfanyl]methyl}-4-hydroxybicyclo[3.1.0]hexane-2,6-dicarboxylate hydrochloride]
Immobilization Time [10, 13]: 140 s
Maximal Decrease (1 − compound/control) * 100% [10, 13]: 20.9%
Immobilization Time [10, 14]: 130 s
Maximal Decrease (1 − compound/control) * 100% [10, 14]: 24.5%
Cumulative Time Awake first 7 hours, mean difference from vehicle controls ([11]; 10 mg/kg PO): 40.2 min
Locomotor Activity Intensity, mean difference from vehicle controls ([11]; 10 mg/kg PO): 4.5 counts of LMA per minute of EEG-defined wakefulness
Cumulative Time Awake 8-19 hours, mean difference from vehicle controls ([11]; 10 mg/kg PO): 12.1 min
Cumulative Time Awake first 7 hours, mean difference from vehicle controls ([11]; 30 mg/kg PO): 109.3 min
Locomotor Activity Intensity, mean difference from vehicle controls ([11]; 30 mg/kg PO): 3.0 counts of LMA per minute of EEG-defined wakefulness
Cumulative Time Awake 8-19 hours, mean difference from vehicle controls ([11]; 30 mg/kg PO): -4.1 min
Cumulative Time Awake first 7 hours, mean difference from vehicle controls ([11]; 60 mg/kg PO): 118.9 min
Locomotor Activity Intensity, mean difference from vehicle controls ([11]; 60 mg/kg PO): 4.9 counts of LMA per minute of EEG-defined wakefulness
Cumulative Time Awake 8-19 hours, mean difference from vehicle controls ([11]; 60 mg/kg PO): 2.7 min
immobility time in mGlu2+/+ mice ([6]; 30 mg/kg, po, 120 min prior): decrease immobility time
ED60 (mg/kg) ([8]; p.o.): 12.0 (p.o.) mg/kg
Maximal Decrease (1 − compound/control) * 100% ([8]; p.o.): 58.4%
brain and plasma levels of the active di-acid moiety [12]: no increase in exposure levels
